Assay results: publication PMC12254266, “Multicolored sequential resonance energy transfer for detection of simultaneous ligand binding at G protein-coupled receptors” (Nature Communications, 2025)
“And” between values parts separate entries of the source, which are not always exact repeats. Identical values can stand only once. Each block holds one molecule with its values, some of them ahead of it.

How the values were obtained:
[1] = target: FFA1 (Homo sapiens, UniProt O14842); assay: Ca2+ mobilisation (Fura2) in Flp-In T-REx 293 cells expressing Nluc-FFA1, FFA1-Nluc or untagged FFA1; format: cell-based; set-up: expressed in transfected cells; conditions: NR = No response
Method: Nluc-FFA1, FFA1-Nluc or untagged FFA1 Flp-In T-REx 293 cells were plated at 50,000 cells per well in poly-D-lysine coated black clear bottom 96-well plates. Cells were then cultured for 24 h until reaching confluency before culture medium was replaced with medium containing 100 ng/mL of doxycycline to induce receptor expression. Cells were cultured for a further 24 h before the assay. On the day of the assay culture medium was removed and replaced with medium containing 3 μM Fura2-AM Ca^2+ dye. […] Fura2 fluorescent emission at 520 nm following excitation with each of 340 and 380 nm was measured in regular intervals both before and after adding test compounds for a total of 90 s per well. Calcium responses were determined by taking the peak 340/380 ratio after first subtracting the ratios obtained prior to addition of test compound.

[2] = target: FFA1-Nluc (Homo sapiens, UniProt O14842); assay: DISCo-BRET (endpoint, spectra scan, kinetics) with TUG-2591 and TUG-2597 at C terminal Nluc tagged FFA1; format: binding; set-up: expressed in transfected cells; conditions: for pIC50 DISCo-BRET NBD/Nluc / pIC50 DISCo-BRET SulfoCy5/NBD: NC = No competition; for pIC50 DISCo-BRET SulfoCy5/NBD: one site model
Method: Nluc-FFA1 or FFA1-Nluc Flp-In T-REx 293 cells were plated at 50,000 cells per well in poly-D-lysine coated white 96-well plates. Cells were cultured for 24 h in the plate before medium was replaced with medium containing 100 ng/mL of doxycycline to induce receptor expression. After culturing for a further 24 h, culture medium was removed, cells washed with HBSS and incubated in HBSS for 30 min. For all DISCo-BRET formats Nano-Glo substrate was then added at a 1:800 final dilution and cells incubated for 10 min. Following substrate addition experimental set up different among the three formats: endpoint, spectra scan, and kinetics.
For endpoint experiments all fluorescent and unlabelled ligands were added to the cells and incubated for 5 min at 37 °C. Luminescent emission was then measured using a CLARIOstar microplate reader with monochromator set at 450–60 nm (Nluc), 540−60 nm (NBD) and 690–100 nm (SulfoCy5). BRET ratios were then calculated as either SulfoCy5 emission divided by NBD emission, SulfoCy5 emission divided by Nluc emission, or NBD emission divided by Nluc emission.
For spectra scan experiments all indicated fluorescent and unlabelled ligands were added to the cells and cells incubated for 5 min at 37 °C. Luminescence emissions were then measured from each well of the plate from 440 nm – 740 nm with a 5 nm resolution using a CLARIOstar microplate. Luminescent emission spectra were then normalised as a percentage of the maximal Nluc emission peak ( ~ 460 nm), then subtracted with the spectrum obtained in the presence of high concentrations of ligands competing for both binding sites to obtain specific BRET binding spectra.
In kinetic DISCo-BRET experiments plates were placed directly in a CLARIOstar plate reader set to 25 °C 10 min after Nano-Glo substrate addition. Luminescent measurements were then taken with three sequential measurements per well with the monochromator set to 450–60 nm (Nluc), 540 - 60 nm (NBD) and 690–100 nm (SulfoCy5) taken in 20 or 30 s intervals. After 5 min of background measurements, the plate reader was paused for the first indicated fluorescent ligand(s) addition, before immediately returning the plate to the reader to continue luminescence readings. After 5 min, the reader was again paused to add the second fluorescent ligand (association assays) or competing ligand(s) (dissociation assays), before immediately continuing the measurements for the indicated time. Non-specific control binding was obtained by adding the indicated competing ligand(s) 5 min prior to the addition of the first fluorescent ligand.

[3] = 100 nM TUG-2591 and […] TUG-2597

Sequence of FFA1-Nluc (O14842 whole entry): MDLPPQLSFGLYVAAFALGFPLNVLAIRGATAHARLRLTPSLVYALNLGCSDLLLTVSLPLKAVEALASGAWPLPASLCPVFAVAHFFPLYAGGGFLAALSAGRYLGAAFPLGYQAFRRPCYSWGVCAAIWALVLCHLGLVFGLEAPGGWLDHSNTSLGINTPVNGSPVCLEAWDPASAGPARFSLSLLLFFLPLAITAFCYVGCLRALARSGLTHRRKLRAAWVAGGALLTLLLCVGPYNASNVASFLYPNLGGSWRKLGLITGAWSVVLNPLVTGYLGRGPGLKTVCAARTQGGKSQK
Sequence of FFA1 (O14842 whole entry): as above

- pEC50 ([1]; Ca2+ data, mean±SEM): 6.62±0.15
- EMax ([1]; percentage of response to 10 μM T360): 108±3%
SMILES: COc1ccc(C(=O)NCC(C)(C)CNC(=O)OC(C)(C)C)c(N2CCC(COc3cccc(C(CC(=O)O)C4CC4)c3)CC2)c1.Cl (stereo not shown) [TUG-2457]

SMILES: CC/C=C\C/C=C\C/C=C\CCCCCCCC(=O)O [aLA, α-linolenic acid, reference compound]
- pIC50 DISCo-BRET NBD/Nluc [2, 3]: ~ 2.9
- pIC50 DISCo-BRET SulfoCy5/NBD [2, 3]: ~ 3.7
- Specific BRET (540/450), % of control ([2]; log[Ligand] -3.5, Figure 4Bi, single replicate values (technical duplicate)): 354.98 % of control and 422.66 % of control and 352.08 % of control and 364.14 % of control and 218.20 % of control and 190.12 % of control and 192.71 % of control and 171.70 % of control
- Specific BRET (540/450), % of control ([2]; log[Ligand] -4, Figure 4Bi, single replicate values (technical duplicate)): 179.15 % of control and 260.42 % of control and 251.25 % of control and 232.54 % of control and 120.10 % of control and 104.16 % of control and 145.44 % of control and 143.73 % of control
- Specific BRET (540/450), % of control ([2]; log[Ligand] -4.5, Figure 4Bi, single replicate values (technical duplicate)): 155.59 % of control and 151.36 % of control and 193.87 % of control and 183.26 % of control and 24.44 % of control and 77.47 % of control and 109.72 % of control and 124.03 % of control
- Specific BRET (690/540), % of control ([2]; log[Ligand] -4.5, technical duplicate): 81.41 % of control and 79.89 % of control and 110.36 % of control and 102.58 % of control and 55.19 % of control and 61.69 % of control and 79.93 % of control
- Specific BRET (540/450), % of control ([2]; log[Ligand] -5, Figure 4Bi, single replicate values (technical duplicate)): 123.87 % of control and 127.19 % of control and 164.97 % of control and 169.96 % of control and 63.60 % of control and 42.81 % of control and 103.55 % of control and 110.64 % of control
- Specific BRET (690/540), % of control ([2]; log[Ligand] -5, technical duplicate): 89.67 % of control and 83.59 % of control and 104.96 % of control and 115.39 % of control and 81.83 % of control and 84.93 % of control and 95.09 % of control and 92.80 % of control
- Specific BRET (540/450), % of control ([2]; log[Ligand] -5.5, Figure 4Bi, single replicate values (technical duplicate)): 115.11 % of control and 123.26 % of control and 154.99 % of control and 156.24 % of control and 24.44 % of control and 64.99 % of control and 93.96 % of control and 98.42 % of control
- Specific BRET (690/540), % of control ([2]; log[Ligand] -5.5, technical duplicate): 91.96 % of control and 95.98 % of control and 110.87 % of control and 118.78 % of control and 93.29 % of control and 101.24 % of control and 95.01 % of control and 95.16 % of control
- Specific BRET (540/450), % of control ([2]; log[Ligand] -6, Figure 4Bi, single replicate values (technical duplicate)): 117.22 % of control and 113.60 % of control and 140.23 % of control and 145.01 % of control and 35.88 % of control and 33.45 % of control and 94.09 % of control and 108.27 % of control
- Specific BRET (540/450), % of control ([2]; log[Ligand] -7, Figure 4Bi, single replicate values (technical duplicate)): 110.27 % of control and 80.36 % of control and 117.15 % of control and 115.28 % of control and 96.88 % of control and 77.82 % of control and 92.78 % of control and 101.71 % of control
- Specific BRET (690/540), % of control ([2]; log[Ligand] -7, technical duplicate): 92.39 % of control and 86.20 % of control and 111.87 % of control and 113.13 % of control and 97.73 % of control and 97.01 % of control and 100.19 % of control and 94.25 % of control
- Specific BRET (690/540), % of control ([2]; log[ligand] -6, technical duplicate): 86.09 % of control and 86.20 % of control and 111.62 % of control and 112.25 % of control and 100.93 % of control and 101.65 % of control and 99.73 % of control and 101.33 % of control

- pIC50 DISCo-BRET NBD/Nluc [2, 3]: 6.1±0.2
- pIC50 DISCo-BRET SulfoCy5/NBD [2, 3]: 6.0±0.1
- 'bottom' of the IC50 curve, DISCo-BRET NBD/Nluc ([2]; percentage of binding obtained in the absence of competing ligand): 10%
- 'bottom' of the IC50 curve, DISCo-BRET SulfoCy5/NBD ([2]; percentage of binding obtained in the absence of competing ligand, 100 nM TUG-2591 and […] TUG-2597): 3.2%
- pKi DISCo-BRET SulfoCy5/NBD ([2]; using Kd TUG-2591 57 nM): 6.5±0.1
SMILES: CCCN1C(=O)c2ccccc2[C@@H](C(=O)O)[C@@H]1c1ccc(OCc2cccc(C(F)(F)F)c2)cc1 [TUG-2743]
- Specific BRET (690/540), % of control ([2]; log[Ligand] -5, Figure 4Aiii, single replicate values (technical duplicate)): 6.26 % of control and 15.30 % of control and 0.00 % of control and 23.39 % of control and 7.57 % of control and 16.15 % of control and 4.80 % of control and 5.42 % of control
- Specific BRET (540/450), % of control ([2]; log[Ligand] -5, Figure 4Biii, single replicate values (technical duplicate)): 61.42 % of control and 37.32 % of control and -37.32 % of control and -3.93 % of control and 3.93 % of control and 54.66 % of control and 43.23 % of control
- Specific BRET (690/540), % of control ([2]; log[Ligand] -5.5, Figure 4Aiii, single replicate values (technical duplicate)): 25.12 % of control and 40.23 % of control and 23.90 % of control and 52.64 % of control and 8.58 % of control and 35.72 % of control and 22.62 % of control and 24.58 % of control
- Specific BRET (540/450), % of control ([2]; log[Ligand] -5.5, Figure 4Biii, single replicate values (technical duplicate)): 68.58 % of control and 86.33 % of control and -8.16 % of control and -102.04 % of control and 41.80 % of control and 13.93 % of control and 39.36 % of control and 39.62 % of control
- Specific BRET (690/540), % of control ([2]; log[Ligand] -6, Figure 4Aiii, single replicate values (technical duplicate)): 58.42 % of control and 58.33 % of control and 46.92 % of control and 53.66 % of control and 32.09 % of control and 48.03 % of control and 43.57 % of control and 46.72 % of control
- Specific BRET (540/450), % of control ([2]; log[Ligand] -6, Figure 4Biii, single replicate values (technical duplicate)): 100.93 % of control and 79.17 % of control and 5.25 % of control and 9.91 % of control and 41.19 % of control and 34.87 % of control and 62.06 % of control
- Specific BRET (690/540), % of control ([2]; log[Ligand] -6.5, Figure 4Aiii, single replicate values (technical duplicate)): 76.32 % of control and 72.57 % of control and 71.58 % of control and 84.17 % of control and 56.21 % of control and 64.88 % of control and 65.73 % of control and 61.96 % of control
- Specific BRET (690/540), % of control ([2]; log[Ligand] -7, Figure 4Aiii, single replicate values (technical duplicate)): 89.22 % of control and 91.72 % of control and 94.47 % of control and 101.84 % of control and 86.98 % of control and 84.36 % of control and 91.26 % of control and 83.54 % of control
- Specific BRET (540/450), % of control ([2]; log[Ligand] -7, Figure 4Biii, single replicate values (technical duplicate)): 106.08 % of control and 110.38 % of control and 76.97 % of control and 86.30 % of control and 79.83 % of control and 51.81 % of control and 67.53 % of control and 67.76 % of control
- Specific BRET (690/540), % of control ([2]; log[Ligand] -8, Figure 4Aiii, single replicate values (technical duplicate)): 93.65 % of control and 94.71 % of control and 131.47 % of control and 106.17 % of control and 87.89 % of control and 98.79 % of control and 100.59 % of control and 92.67 % of control
- Specific BRET (540/450), % of control ([2]; log[Ligand] -8, Figure 4Biii, single replicate values (technical duplicate)): 118.40 % of control and 124.70 % of control and 235.57 % of control and 32.65 % of control and 76.75 % of control and 53.35 % of control and 80.89 % of control and 68.94 % of control
- Specific BRET (690/540), % of control ([2]; log[Ligand] -9, Figure 4Aiii, single replicate values (technical duplicate)): 99.33 % of control and 100.67 % of control and 26.06 % of control and 102.35 % of control and 91.83 % of control and 93.74 % of control
- Specific BRET (540/450), % of control ([2]; log[Ligand] -9, Figure 4Biii, single replicate values (technical duplicate)): 129.56 % of control and 130.71 % of control and -41.98 % of control and 129.45 % of control and 107.24 % of control and 49.50 % of control and 87.02 % of control and 76.46 % of control
